How the values were obtained:
[1] = test system: MM.1S cells; conditions: cited from earlier work
[2] = test system: MDA-MB-231 cells; experiment: GRO-seq (global nuclear run-on), transcriptional response to JQ1; format: cell-based, Human; conditions: 500 nM JQ1, 6 h vs 0.05% DMSO, FIG. 12K
Description: Cell culture. MDA-MB-231 breast cancer cells (HTB-26 ATCC) and MM.1S multiple myeloma cells were grown at 37° C. and 5% CO2. MDA-MB-231 cells were cultured in Dulbecco's Modified Eagle Medium (Thermo Fisher Sci.) supplemented with 10% fetal bovine serum. MM.1S cells were cultured in RPMI-1640 supplemented with 1% GlutaMAX (Thermo Fisher Sci.) and 10% fetal bovine serum. […] Drosophila S2 cells were cultured in Schneider's Drosophila Medium (Thermo Fisher Sci.) supplemented with 10% fetal bovine serum and 2 mM L-glutamine (Thermo Fisher Sci.), at ambient temperature in ambient CO2.
Functional perturbation of general enhancer activities. […] To quantify transcription activities in an unbiased manner, GRO-seq read densities were initially normalized using total uniquely-mapped read numbers to remove variations between libraries. To minimize the bias introduced by promoter pausing or gene length, only reads that were aligned within the 2 Kb region 1 Kb downstream from the TSS were selected to calculate the transcription activity. For multi-isoform genes, the transcript with highest read counts within the 2 Kb window was selected to represent the gene's transcription activity. Public datasets analyzed. The data of RNA Pol II ChIP-seq for MDA-MB-231 cells were obtained from European Genome-phenome Archive (www.ebi.ac.uk/ega). […]

Q: With Cc1sc2c(c1C)C(c1ccc(Cl)cc1)=N[C@@H](CC(=O)OC(C)(C)C)c1nnc(C)n1-2 [JQ1] as the molecule, how does the “response of gene expression to JQ1: genes associated with at least one super-enhancer vs only typical enhancers” value ([1]; GRID-seq inferred connectivity within 50 Kb range, same without range, FIG. 14E, F) read?
A: more responsive

Q: What about the “response of gene expression to JQ1: genes associated with top 10% vs bottom 10% RNA-decorated enhancers” value ([1]; genes within ±50 Kb of enhancers, FIG. 13E) of the same molecule?
A: more responsive

Q: And the “transcriptional response to JQ1 (GRO-seq): genes associated with top 10% vs bottom 10% RNA-decorated enhancers” value [2]?
A: The same conclusions were reached

— patent US10984891B2, “Methods for global RNA-chromatin interactome discovery” (The Regents of the University of California, priority 2016, dated 2021)
